Measured values: patent US12419889B2, “Methods of treating chronic spontaneous urticaria using a bruton's tyrosine kinase inhibitor” (NOVARTIS AG, priority 2019, dated 2025)

Assays:
[1] = Safety and tolerability in healthy volunteers; format: in vivo, human
Method: Standard safety monitoring was used throughout all study parts. A dedicated assessment of potential skin bruising events were included. All vital signs, physical examination and subject history, ECGs, adverse events, and laboratory safety parameters (blood chemistry, hematology and urinalysis) up to 96 hours post last dose as well as PK data from the previous dose group (if available) up to 48 hours post last dose were to be reviewed in a blinded fashion for each cohort before dose escalation. Summary safety reports of reported adverse events, clinical safety laboratory parameters, QTc and heart rate were provided after completion of each dose level.
For the analysis of adverse effects, the Placebo subjects from all SAD and MAD cohorts (2 per cohort) and separated by the SAD and MAD parts were pooled into one Placebo group (n=20 for SAD and n=16 for MAD) to be compared with each single compound (I) dose group (n=6 each) and the total compound (I) group (n=60 for SAD and n=48 for MAD). There were no apparent major differences in the demographic data between placebo and the active groups both for the SAD and MAD populations.

[2] = First-in-human study, blood and urine PK (SAD, MAD q.d., b.i.d.); format: in vivo; details: for drug accumulation ratio (Racc): MAD q.d.
Method: A first-in-human study was conducted to assess the safety and tolerability, pharmacokinetics (PK) and pharmacodynamics (PD) of single and multiple doses of compound (I) both as once daily (qd) and twice daily (bid) oral administration in healthy volunteers and those with atopic diathesis, to support further clinical development of compound (I) in autoimmune diseases. This study also explored the effect of food intake.
First-in-human study in up to approximately 168 healthy volunteers (HVs), of which 64 (in Parts 2 & 4) had asymptomatic atopic diathesis. • Part 1 was a double-blind (subject and investigator blind, sponsor unblinded), placebo-controlled single ascending dose (SAD) escalation study of 10 cohorts (N=80) • Part 2 was a double-blind (subject and investigator blind, sponsor unblinded), placebo-controlled multiple ascending dose (MAD) (13 doses over 12 days) escalation study employing once daily dosing in 6 cohorts in healthy volunteers with asymptomatic atopic diathesis (N=48) • Part 3 was a single dose open-label crossover food effect study in 12 HVs • Part 4 was a double-blind (subject and investigator blind, sponsor unblinded), placebo-controlled multiple dose (25 doses over 12 days) study employing twice daily dosing in 2 cohorts of healthy volunteers with asymptomatic atopic diathesis (N=16)
The SAD part (Part 1) had ten dose levels and the MAD parts (Parts 2 & 4) consisted of eight dose levels (6 cohorts using single daily dosing in Part 2 and 2 cohorts using twice daily dosing in Part 4). Eight subjects were randomized into each cohort to receive either compound (I) or matching placebo in a 6:2 (active: placebo) ratio in the SAD and MAD parts. Within the SAD part, doses up to approximately 4 times the estimated pharmacologically active dose (PAD) were to be evaluated before the MAD part of the study was started, providing there was no safety signal emerging from the SAD part until then.
In Part 1, subjects were admitted to the study site on Day −2 or −1 for baseline safety assessments and to confirm eligibility. Eligible subjects received a single dose of compound (I) or placebo under fasting conditions on Day 1. They were domiciled from Day −1 to the morning of Day 5 (96 hours post last drug administration).
In Parts 2 and 4, subjects were admitted on Day −2 or −1 for baseline safety assessments and to confirm eligibility. Eligible subjects received the first dose of compound (I) under fasting conditions on Day 1, and continued to take study medication under fasting conditions up to and including Day 12. Subjects were domiciled from Day −2 or −1 until the morning of Day 16, which equals 96 hours after the last dose of compound (I) was received. In Parts 2 and 4, the study medication was given once daily and twice daily respectively (details are found in the schedule of assessments).
Subjects were assigned to one of the following 10 cohorts. In each cohort, 8 subjects were randomized to either compound (I) or matching placebo in an overall 6:2 ratio. The first sub-cohort was randomized in a 1:1 ratio as one subject on compound (I) and one on matching placebo. […]

[3] = First-in-human study Part 3, food effect PK; format: in vivo
Text: Part 3 was an open-label, randomized, two-way cross-over, single dose study to assess food effects. In Part 3, each subject participated in a 28 day screening period (Day −29 to −2), 2 baseline (Day −1) and 2 treatment periods, each consisting of a single dose administration on Day 1 followed by safety and PK assessment up to Day 5. Treatment period 2 consisted of a follow-up visit and an end of study evaluation on Day 22 and 40, respectively. The two treatment periods were separated by a wash-out period of at least 18 days (+1-1 day).
Subjects were randomized to one of the 2 treatment sequences (Table 9) in the ratio of 1:1. Definition of treatment sequences for Part 3
Pharmacokinetic samples were obtained in blood and evaluated in all subjects at all dose levels. The samples from placebo subjects were not analyzed. The samples for PK assessments from subjects were collected at time points defined in the study. Compound (I) concentrations were determined in blood by a validated LC-MS/MS method.

## C=CC(=O)N(C)CCOc1c(N)ncnc1-c1cc(F)cc(NC(=O)c2ccc(C3CC3)cc2F)c1C [Compound (I), N-(3-(6-Amino-5-(2-(N-methylacrylamido)ethoxy)pyrimidin-4-yl)-5-fluoro-2-methylphenyl)-4-cyclopropyl-2-fluorobenzamide]
[1]; 0.5 mg to 600 mg
  serious or severe adverse events related to intake: no serious or severe adverse event
[1]; 0.5 mg to 600 mg, single dose or up to 18 days once or twice daily
  tolerability: well tolerated
[1]; dosing up to 600 mg
  safety assessment of the FIH study: does not reveal significant safety concerns
[2]; Day 12, 400 mg qd
  Renal clearance, mean ± SD: 16.9 ± 7.13 mL/min
[2]; day 12 vs day 1, high dose
  drug accumulation ratio (Racc): 1.2
[2]; day 12 vs day 1, low dose
  drug accumulation ratio (Racc): 5
[2]; blood, Day 1, 10 mg qd
  MRT, median: 46 min
[2]; blood, Day 1, 25 mg qd
  MRT, median: 70.2 min
[2]; blood, Day 1, 600 mg qd
  AUC0-24, median: 932 ng·h/mL
[2]; blood, Day 12, 10 mg qd
  CLss/F, mean ± SD: 425 ± 64.8 L/h
  CLss/F, median (min-max): 423 (341-529) L/h
[2]; blood, Day 12, 25 mg qd
  AUC0-24, mean ± SD: 117 ± 60.9 ng·h/mL
  AUClast, mean ± SD: 114 ± 59.7 ng·h/mL
  CLss/F, mean ± SD: 307 ± 253 L/h
  CLss/F, median (min-max): 248 (129-809) L/h
[2]; blood, Day 12, 50 mg qd
  AUC0-24, mean ± SD: 209 ± 80.2 ng·h/mL
  AUC0-24, median (min-max): 181 (127-325) h * ng/mL
  CLss/F, mean ± SD: 268 ± 92.8 L/h
  CLss/F, median (min-max): 276 (154-395) L/h
[2]; blood, Day 12, 100 mg qd
  CLss/F, mean ± SD: 198 ± 88.7 L/h
  CLss/F, median (min-max): 166 (129-298) L/h
[2]; blood, Day 12, 400 mg qd
  CLss/F, mean ± SD: 366 ± 150 L/h
  CLss/F, median (min-max): 351 (177-591) L/h
[2]; blood, Day 12, 600 mg qd
  CLss/F, mean ± SD: 521 ± 131 L/h
  CLss/F, median (min-max): 569 (345-661) L/h
  Cmax, median (min-max): 475 (377-985) ng/mL
[2]; day 12
  increase of Cmax from 100 mg to 200 mg b.i.d.: 1.33 fold
[2]; single dose, all SAD cohorts
  oral blood clearance CL/F, estimate across all cohorts: about 383 L/h
[3]; human, whole blood, single oral dose 60 mg, fasted
  Tmax: 1 h
[3]; single dose 60 mg, FAST
  AUC0-24, GeoMean: 182.08 ng·h/mL
  AUClast, GeoMean: 177.17 ng·h/mL
  Tlast, GeoMean: 9.66 h
  Tlast, Mean: 10.50 h
  Tmax, Mean: 1.02 h
[3]; single dose 60 mg, FED
  Tlast, GeoMean: 9.25 h
  Tlast, Mean: 9.50 h
[3]; single oral dose 60 mg
  higher AUC0-24 fed vs fasted: 1.4 fold
  lower Cmax fed vs fasted: 1.25 fold
